Source: paper PMC3953731 (FEBS Open Bio, 2014)

T1: Ima5p (Saccharomyces cerevisiae, UniProt P40884)
T1 sequence (P40884 1-581): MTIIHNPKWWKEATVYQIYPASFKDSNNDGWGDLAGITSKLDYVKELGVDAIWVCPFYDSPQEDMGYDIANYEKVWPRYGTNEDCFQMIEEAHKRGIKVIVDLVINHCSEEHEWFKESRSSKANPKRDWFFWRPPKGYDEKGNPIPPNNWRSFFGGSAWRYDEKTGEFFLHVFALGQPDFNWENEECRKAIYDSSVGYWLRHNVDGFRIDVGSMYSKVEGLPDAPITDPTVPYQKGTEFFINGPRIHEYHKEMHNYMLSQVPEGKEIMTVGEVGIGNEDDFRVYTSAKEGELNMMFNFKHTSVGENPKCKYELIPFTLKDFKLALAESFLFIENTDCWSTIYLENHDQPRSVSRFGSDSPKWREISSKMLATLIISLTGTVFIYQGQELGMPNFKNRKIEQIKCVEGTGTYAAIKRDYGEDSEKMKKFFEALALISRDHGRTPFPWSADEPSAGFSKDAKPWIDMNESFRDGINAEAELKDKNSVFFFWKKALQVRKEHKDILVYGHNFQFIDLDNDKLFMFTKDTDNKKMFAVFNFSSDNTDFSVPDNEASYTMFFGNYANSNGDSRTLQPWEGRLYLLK

B1: Ima3p_R279Q: Ima3p variant with R279Q mutation (protein, UniProt P0CW40 1-589, looked up, variant R279Q)
Oligo-1,6-glucosidase IMA3: MTISSAHPETEPKWWKEATIYQIYPASFKDSNNDGWGDMKGIASKLEYIKELGTDAIWISPFYDSPQDDMGYDIANYEKVWPTYGTNEDCFALIEKTHKLGMKFITDLVINHCSSEHEWFKESRSSKTNPKRDWFFWRPPKGYDAEGKPIPPNNWRSYFGGSAWTFDEKTQEFYLRLFCSTQPDLNWENEDCRKAIYESAVGYWLDHGVDGFRIDVGSLYSKVAGLPDAPVIDENSKWQLSDPFTMNGPRIHEFHQEMNKFIRNRVKDGREIMTVGEMQHATDETKRLYTSASRHELSELFNFSHTDVGTSPKFRQNLIPYELKDWKVALAELFRYVNGTDCWSTIYLENHDQPRSITRFGDDSPKNRVISGKLLSVLLVSLSGTLYVYQGQELGEINFKNWPIEKYEDVEVRNNYDAIKEEHGENSKEMKRFLEAIALISRDHARTPMQWSREEPNAGFSGPNAKPWFYLNESFREGINAEDESKDPNSVLNFWKEALRFRKAHKDITVYGYDFEFIDLDNKKLFSFTKKYDNKTLFAALNFSSDSIDFTIPNNSSSFKLEFGNYPRSEVDASSRTLKPWEGRIYISE
B2: Ima5p: isomaltase from S. cerevisiae encoded by IMA5/YJL216C, His-tagged, purified (protein, UniProt P40884 1-581, looked up)
Oligo-1,6-glucosidase IMA5: T1 sequence (P40884 1-581)
modifications: His tag

Tests used:
Ima1p [1] = target: T2, Ima1p (Saccharomyces cerevisiae, UniProt P53051); assay: Kinetic parameters for selected substrates; assay type: biochemical; details: for Km: affinity constant for the substrate; for Km / kcat: mean ± SEM; for Ki: inhibition by high concentration of substrate
Ima5p [2] = target: T1, Ima5p; assay: Kinetic parameters for selected substrates; assay type: biochemical; details: for Km: affinity constant for the substrate; for Km / kcat: mean ± SEM; for Ki: inhibition by high concentration of substrate
Ima3pL240P = Ima3pL240P (Saccharomyces cerevisiae, UniProt P0CW40, L240P); assay: Substrate specificity of purified isomaltase variant; assay type: biochemical; details: 100 mM substrate (pNPG 5 mM), citrate–potassium phosphate buffer, pH 7, 30 °C
Ima3p [3] = target: T3, Ima3p (Saccharomyces cerevisiae, UniProt P0CW40); assay: Substrate specificity of purified isomaltase; assay type: biochemical; details: 100 mM substrate (pNPG 5 mM), pH 7, 30 °C; for Specific activities: citrate–potassium phosphate buffer
Ima5p [4] = target: T1, Ima5p; assay: Substrate specificity of purified isomaltase; assay type: biochemical; details: 100 mM substrate (pNPG 5 mM), pH 7, 30 °C; for Specific activities: citrate–potassium phosphate buffer
Ima1p [5] = target: T2, Ima1p; assay: Substrate specificity of purified isomaltase; assay type: biochemical; details: 100 mM substrate (pNPG 5 mM), pH 7, 30 °C; for Specific activities: citrate–potassium phosphate buffer
Ima2p [6] = target: T4, Ima2p (Saccharomyces cerevisiae, UniProt Q08295); assay: Substrate specificity of purified isomaltase; assay type: biochemical; details: 100 mM substrate (pNPG 5 mM), pH 7, 30 °C; for Specific activities: citrate–potassium phosphate buffer
Ima2p [7] = target: T4, Ima2p; assay: Kinetic parameters for selected substrates; assay type: biochemical; details: for Km: affinity constant for the substrate; for Km / kcat: mean ± SEM; for Ki: inhibition by high concentration of substrate
Ima3p [8] = target: T3, Ima3p; assay: Kinetic parameters for selected substrates; assay type: biochemical; details: for Km: affinity constant for the substrate; for Km / kcat: mean ± SEM; for Ki: inhibition by high concentration of substrate
Ima3pR279Q = Ima3pR279Q (Saccharomyces cerevisiae, UniProt P0CW40, R279Q); assay: Substrate specificity of purified isomaltase variant; assay type: biochemical; details: 100 mM substrate (pNPG 5 mM), citrate–potassium phosphate buffer, pH 7, 30 °C
[9] = Melting temperature by differential scanning fluorimetry; assay type: physicochemical, Saccharomyces cerevisiae; details: mean ± 2 SEM
[10] = Thermostability assay: time-dependent heat inactivation, half-life; assay type: biochemical, Saccharomyces cerevisiae; details: pNPG 5 mM, mean ± 2 SEM

T2 sequence (P53051 whole entry): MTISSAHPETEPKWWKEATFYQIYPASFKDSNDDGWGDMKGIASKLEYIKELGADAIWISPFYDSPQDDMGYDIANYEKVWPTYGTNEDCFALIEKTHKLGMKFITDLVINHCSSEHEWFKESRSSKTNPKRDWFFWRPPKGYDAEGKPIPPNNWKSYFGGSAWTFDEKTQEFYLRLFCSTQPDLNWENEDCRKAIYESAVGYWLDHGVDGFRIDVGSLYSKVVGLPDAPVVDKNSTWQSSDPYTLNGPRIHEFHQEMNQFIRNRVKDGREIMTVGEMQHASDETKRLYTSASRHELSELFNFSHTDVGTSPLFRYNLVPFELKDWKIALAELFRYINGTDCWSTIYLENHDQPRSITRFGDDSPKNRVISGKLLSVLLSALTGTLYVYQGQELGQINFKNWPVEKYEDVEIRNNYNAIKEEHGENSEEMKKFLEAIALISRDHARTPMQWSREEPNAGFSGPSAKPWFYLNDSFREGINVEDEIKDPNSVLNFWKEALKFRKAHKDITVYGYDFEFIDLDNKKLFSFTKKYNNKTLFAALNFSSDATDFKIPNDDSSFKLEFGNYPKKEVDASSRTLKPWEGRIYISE
Ima3pL240P, sequence (P0CW40 whole entry L240P): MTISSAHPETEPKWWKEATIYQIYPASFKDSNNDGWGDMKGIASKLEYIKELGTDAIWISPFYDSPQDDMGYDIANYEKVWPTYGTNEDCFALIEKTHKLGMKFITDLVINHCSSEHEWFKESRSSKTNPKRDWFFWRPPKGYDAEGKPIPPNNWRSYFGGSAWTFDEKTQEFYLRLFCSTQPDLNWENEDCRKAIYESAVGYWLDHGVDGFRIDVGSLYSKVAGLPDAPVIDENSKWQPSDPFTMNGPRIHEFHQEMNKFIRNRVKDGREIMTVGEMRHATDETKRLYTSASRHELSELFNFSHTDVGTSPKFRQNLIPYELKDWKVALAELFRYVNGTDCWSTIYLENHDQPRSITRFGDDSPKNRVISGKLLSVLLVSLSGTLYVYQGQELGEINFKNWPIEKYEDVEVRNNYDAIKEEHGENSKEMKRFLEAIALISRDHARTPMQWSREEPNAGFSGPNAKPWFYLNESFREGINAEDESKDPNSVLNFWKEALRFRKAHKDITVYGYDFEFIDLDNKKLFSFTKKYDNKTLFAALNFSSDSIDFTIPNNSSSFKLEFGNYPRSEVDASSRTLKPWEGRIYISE
T3 sequence (P0CW40 whole entry): as the sequence (P0CW40 whole entry L240P) above, with P240L counted along it
T4 sequence (Q08295 whole entry): as the sequence (P0CW40 whole entry L240P) above, with T54A, R279Q counted along it

Molecule	Km (Ima1p [1]) [mM]	kcat (Ima1p [1]) [s⁻¹]	Km (Ima5p [2]) [mM]	kcat (Ima5p [2]) [s⁻¹]	Specific activities (Ima3pL240P) [µmol/min/mg]	Specific activities (Ima3p [3]) [µmol/min/mg]	Specific activities (Ima5p [4]) [µmol/min/mg]	relative activity, velocity on isomaltose set to 100 (Ima5p [4]) [%]	Specific activities (Ima1p [5]) [µmol/min/mg]	relative activity, velocity on isomaltose set to 100 (Ima1p [5]) [%]	Specific activities (Ima2p [6]) [µmol/min/mg]	relative activity, velocity on isomaltose set to 100 (Ima2p [6]) [%]	Km (Ima2p [7]) [mM]	kcat (Ima2p [7]) [s⁻¹]	kcat (Ima3p [8]) [s⁻¹]	Specific activities (Ima3pR279Q) [µmol/min/mg]	Ki (Ima3p [8])	other results
OC[C@H]1O[C@H](OC[C@H]2O[C@H](O)[C@H](O)[C@@H](O)[C@@H]2O)[C@H](O)[C@@H](O)[C@@H]1O [Isomaltose, O-α-D-Glucosyl-(1→6)-α-D-glucose]	17 ± 4	103 ± 12	13 ± 2	101 ± 8	2.2	7.2	65	100	60	100	54	100	17 ± 2	97 ± 5	15 ± 2	29		relative activity, velocity on isomaltose set to 100 (Ima3p [3]): 100%; Km (Ima3p [8]): 37 ± 9 mM
OC[C@H]1O[C@H](OC[C@H]2O[C@H](OC[C@H]3OC(O)[C@H](O)[C@@H](O)[C@@H]3O)[C@H](O)[C@@H](O)[C@@H]2O)[C@H](O)[C@@H](O)[C@@H]1O (stereo partly drawn) [Isomaltotriose, O-α-D-Glucosyl-(1→6)-α-D-glucosyl-(1→6)-D-glucose]		21 ± 4	83 ± 25	18 ± 3		0	8.6	13	7.9	13	7.6	14	72 ± 16	15 ± 2	0		None	Ki (Ima1p [1]): None; Ki (Ima5p [2]): None; Ki (Ima2p [7]): None
OC[C@H]1O[C@H](O[C@@H]2COC(O)(CO)[C@@H](O)[C@@H]2O)[C@H](O)[C@@H](O)[C@@H]1O (stereo partly drawn) [Leucrose, O-α-D-Glucosyl-(1→5)-D-fructose]					0	0	1.1	2	8.6	14	8.6	16				1.5		
OC[C@H]1O[C@H](OC[C@H]2OC(O)(CO)[C@@H](O)[C@@H]2O)[C@H](O)[C@@H](O)[C@@H]1O (stereo partly drawn) [Palatinose, O-α-D-Glucosyl-(1→6)-D-fructose]	18 ± 4	78 ± 8	12 ± 3	56 ± 5	2.8	5	39	60	52	87	74	137	11 ± 2	104 ± 6	6.0 ± 0.1	33	None	relative activity, velocity on isomaltose set to 100 (Ima3p [3]): 69%; Km (Ima3p [8]): 7 ± 0.7 mM
OC[C@H]1O[C@H](OC[C@H]2O[C@H](O[C@H]3[C@H](O)[C@@H](O)C(O)O[C@@H]3CO)[C@H](O)[C@@H](O)[C@@H]2O)[C@H](O)[C@@H](O)[C@@H]1O (stereo partly drawn) [Panose, O-α-D-Glucosyl-(1→6)-α-D-glucosyl-(1→4)-D-glucose]	82 ± 17	6.3 ± 0.5	82 ± 12	23 ± 1	0	0	11	17	3.1	5	2.9	5		7.7 ± 0.7	0	3.1	None	Ki (Ima1p [1]): None; Ki (Ima5p [2]): None; more activity of Ima5p than Ima1p (Ima5p [2]; whatsoever the panose concentration): 3.5 fold; Ki (Ima2p [7]): None
B1																		Tm ([9]; pH 7, DSF): 37.6 ± 0.8 °C; t1/2 ([10]; 37 °C): 9.5 ± 1.7 min; t1/2 ([10]; 40 °C): 2.0 ± 0.3 min
B2																		Tm ([9]; pH 6, DSF): 36.6 ± 0.4 °C; Tm ([9]; pH 8, DSF): 35.7 ± 0.5 °C; t1/2 ([10]; 37 °C): 2.9 ± 0.4 min; t1/2 ([10]; 40 °C): 0.8 ± 0.1 min
